Data published in patent publication US11478505B2, “Compositions of ixabepilone” (R-Pharm US Operating LLC, priority 2020, dated 2022).

Legend:
[1] = tested on: A549 Human Lung Carcinoma; test: cytotoxicity, cell viability count after 96 h of treatment; format: cell-based; conditions: 20 nM, trypan blue
Procedure: (§1) After 96 hours of treatment, cells were counted for viability.
(§2) Materials and Equipment: Eagle's Minimum Essential Media (ATCC No. 30-2003); F-12K Media (ATCC No. 30-2008); Fetal Bovine Serum (ATCC No. 30-2020); Penicillin/Streptomycin (Thermo Fisher No. 15-140-122); Human Recombinant Insulin 0.01 mg/mL (Sigma No. 19278); Trypsin (ATCC No. 25-200-072); Phosphate Buffered Saline (Corning from Thermo Fisher No. 21040CM); Hemocytometer (Hausser from Fischer No. 02-671-6); Trypan blue (Gibco No. 15250061); p100 tissue culture dishes (Falcon-Corning No. 08-772E). Ixabepilone (Lot 3L7304N) was provided by R-Pharm US. […] Saline control was phosphate-buffered 150 mM NaCl solution.
(§3) Cells were rapidly thawed in a water bath at 37° C. and resuspended in appropriate media before being transferred to 60 mm or 100 mm tissue culture dishes. A549 cells were maintained in F12-K media, supplemented with 10% fetal bovine serum, and 1% penicillin/streptomycin. MCF7 cells were maintained in Eagle's Minimum Essential media, supplemented with 10% fetal bovine serum, 1% penicillin/streptomycin, and 0.01 mg/mL insulin. All cells were passaged at least three times before treatment. […] Saline was administered at the equivalent volume used for the ixabepilone treatment for each respective cell line. At 96 h, cells were trypsinized and harvested and counted with trypan blue on a hemocytometer.

[2] = tested on: MCF7 Human Breast Adenocarcinoma; test: as above; format: cell-based; conditions: 40 nM, trypan blue
Procedure: as §1, §2, §3

[3] = cited from earlier work

C/C(=C\c1csc(C)n1)[C@@H]1C[C@@H]2O[C@]2(C)CCC[C@H](C)[C@H](O)[C@@H](C)C(=O)C(C)(C)[C@@H](O)CC(=O)N1 [ixabepilone, (1S,3S,7S,10R,11S,12S,16R)-7,11dihydroxy-8,8,10,12,16-pentamethyl-3-[(1E)-1-methyl-2-(2-methyl-4-thiazolyl)ethenyl]17-oxa-4-azabicyclo[14.1.0] heptadecane-5,9-dione]
average cell viability count [1]: 106×10^4
average cell viability count [2]: 70×10^4
tolerability ([3]; doses of 0.1, 1.0 or 2.0 mg/kg, weekly IV, 5 doses): generally well tolerated
no observed adverse effect level (NOAEL) ([3]; weekly intravenous dosing for one month (5 doses)): 0.1 mg/kg
